Assay results reported in patent publication EP3227262B1, “SULFIDE ALKYL AND PYRIDYL REVERSE SULFONAMIDE COMPOUNDS FOR HBV TREATMENT” (Novira Therapeutics Inc., priority 2014, dated 2016).
pEC50: −log10 of the molar value.

tested on: HBV; assay: Inhibition of HBV replication dot-blot assay in HBV-producing hepatoma cell line; format: cell-based; settings: Hepatitis B virus, 144 h; activity in Dot-Blot assay; HepG2-2.2.15 cells; reduction in HBV DNA levels, six days
Description: Compounds active in the HBV assembly assay are tested for their activity and toxicity in cellular assay. In the first anti-viral assay, the ability of compounds to inhibit HBV replication in an HBV-producing hepatoma cell line using the dot-blot method is evaluated.
(§1) Briefly, confluent monolayers of HepG2-2.2.15 cells are incubated with complete medium containing various concentrations of a test compound. Three days later, the culture medium is replaced with fresh medium containing the appropriately diluted test compound. Six days following the initial administration of the test compound, the cell culture supernatant is collected, and cell lysis is performed. The samples are applied onto Nylos membranes and DNA is immobilized to the membrane by UV cross-linking. After pre-hybridization, the HBV probe is added and the hybridization is performed overnight. The membranes are exposed to the KODAK films; antiviral activity is calculated from the reduction in HBV DNA levels (EC50). The EC50 for antiviral activity is calculated from the dose response curves of active compounds. Assay performance over time is monitored by the use of the standard positive control compounds ETV, BAY 41-4109, and HAP-1.
Selected compounds are tested for their activity and toxicity in cellular assay. In the first anti-viral assay, the ability of compounds to inhibit HBV replication in an HBV-producing hepatoma cell line using the dot-blot method is evaluated.
as §1, with “Confluent monolayers” for “Briefly, confluent monolayers”, “lysis was” for “lysis is”

Row | Structure (SMILES) | pEC50
1 | O=C(Nc1ccc(F)c(Cl)c1)c1cccc(SC2CCC(O)CC2)c1 (mixture of isomers) [Compound 34, (cis/trans)-N-(3-Chloro-4-fluorophenyl)-3-((4-hydroxycyclohexyl)thio)benzamide] | > 5.00
2 | O=C(Nc1ccc(F)c(Cl)c1)c1ccc(F)c(SC2CC(C(=O)O)C2)c1 (mixture of isomers) [Compound 58, (cis/trans)-3-((5-((3-Chloro-4-fluorophenyl)carbamoyl)-2-fluorophenyl)thio)cyclobutanecarboxylic acid] | > 5.00
3 | O=C(Nc1ccc(F)c(F)c1)c1ccc(F)c(SC2CC(C(=O)O)C2)c1 (mixture of isomers) [Compound 59, (cis/trans)-3-((5-((3,4-Difluorophenyl)carbamoyl)-2-fluorophenyl)thio)cyclobutanecarboxylic acid] | > 5.00
4 | O=C(Nc1ccc(F)c(Cl)c1)c1ccc(F)c(SC2CCC(C(=O)O)CC2)c1 (mixture of isomers) [Compound 61, (cis/trans)-4-((5-((3-Chloro-4-fluorophenyl)carbamoyl)-2-fluorophenyl)thio)cyclohexanecarboxylic acid] | > 5.00
5 | COc1ccc(C(=O)Nc2ccc(F)c(Cl)c2)cc1SC1CCC(O)CC1 (mixture of isomers) [Compound 70, (cis/trans)-N-(3-Chloro-4-fluorophenyl)-3-((4-hydroxycyclohexyl)thio)-4-methoxybenzamide] | > 5.00
6 | O=C(Nc1ccc(F)c(Cl)c1)c1ccc(Cl)c(SC2CCC(O)CC2)c1 (mixture of isomers) [Compound 75, (cis/trans)-4-Chloro-N-(3-chloro-4-fluorophenyl)-3-((4-hydroxycyclohexyl)thio)benzamide] | > 5.00
7 | Cc1ccc(C(=O)Nc2cc(F)c(F)c(F)c2)cc1SC1CCC(O)CC1 (mixture of isomers) [Compound 77, (cis/trans)-3-((4-Hydroxycyclohexyl)thio)-4-methyl-N-(3,4,5-trifluorophenyl)benzamide] | > 5.00
8 | O=C(Nc1cc(F)c(F)c(F)c1)c1ccc(Cl)c(SC2CCC(O)CC2)c1 (mixture of isomers) [Compound 81, (cis/trans)-4-Chloro-3-((4-hydroxycyclohexyl)thio)-N-(3,4,5-trifluorophenyl)benzamide] | > 5.00
9 | COc1ccc(C(=O)Nc2cc(F)c(F)c(F)c2)cc1SC1CCC(O)CC1 (mixture of isomers) [Compound 84, (cis/trans)-3-((4-Hydroxycyclohexyl)thio)-4-methoxy-N-(3,4,5-trifluorophenyl)benzamide] | > 5.00
10 | O=C(Nc1ccc(F)c(F)c1)c1ccc(Cl)c(SC2CCC(O)CC2)c1 (mixture of isomers) [Compound 87, (cis/trans)-4-Chloro-N-(3,4-difluorophenyl)-3-((4-hydroxycyclohexyl)thio)benzamide] | > 5.00
11 | COc1ccc(C(=O)Nc2ccc(F)c(F)c2)cc1SC1CCC(O)CC1 (mixture of isomers) [Compound 89, (cis/trans)-N-(3,4-Difluorophenyl)-3-((4-hydroxycyclohexyl)thio)-4-methoxybenzamide] | > 5.00
12 | N#Cc1ccc(C(=O)Nc2ccc(F)c(F)c2)cc1SC1CCC(O)CC1 (mixture of isomers) [Compound 93, (cis/trans)-4-Cyano-N-(3,4-difluorophenyl)-3-((4-hydroxycyclohexyl)thio)benzamide] | > 5.00
13 | N#Cc1ccc(C(=O)Nc2ccc(F)c(Cl)c2)cc1SC1CCC(O)CC1 (mixture of isomers) [Compound 95, (cis/trans)-N-(3-Chloro-4-fluorophenyl)-4-cyano-3-((4-hydroxycyclohexyl)thio)benzamide] | > 5.00
14 | CN(C)C(=O)C1CCC(Sc2cc(C(=O)Nc3cc(F)c(F)c(F)c3)ccc2F)CC1 (mixture of isomers) [Compound 103, (cis/trans)-3-((4-(Dimethylcarbamoyl)cyclohexyl)thio)-4-fluoro-N-(3,4,5-trifluorophenyl)benzamide] | > 5.00
15 | O=C(Nc1cc(F)c(F)c(F)c1)c1ccc(F)c(SC2CCC(C(=O)N3CCCCC3)CC2)c1 (mixture of isomers) [Compound 104, (cis/trans)-4-Fluoro-3-((4-(piperidine-1-carbonyl)cyclohexyl)thio)-N-(3,4,5-trifluorophenyl)benzamide] | > 5.00
16 | O=C(O)CC1CCC(Sc2cc(C(=O)Nc3ccc(F)c(Cl)c3)ccc2F)CC1 (mixture of isomers) [Compound 106, (cis/trans)-2-(4-((5-((3-Chloro-4-fluorophenyl)carbamoyl)-2-fluorophenyl)thio)cyclohexyl)acetic acid] | > 5.00

Row | Structure (SMILES) | pEC50
17 | O=C(O)CC1CCC(Sc2cc(C(=O)Nc3cc(F)c(F)c(F)c3)ccc2F)CC1 (mixture of isomers) [Compound 107, (cis/trans)-2-(4-((5-((3,4,5-trifluorophenyl)carbamoyl)-2-fluorophenyl)thio)cyclohexyl)acetic acid] | > 5.00
18 | O=C(Nc1cc(F)c(F)c(F)c1)c1ccc(F)c(SC2CCC(C(=O)N3CCNCC3)CC2)c1 (mixture of isomers) [Compound 108, (cis/trans)-4-Fluoro-3-((4-(piperazine-1-carbonyl)cyclohexyl)thio)-N-(3,4,5-trifluorophenyl)benzamide] | > 5.00
19 | O=C(Nc1ccc(F)c(Cl)c1)c1ccc(F)c(SCC2CCC(C(=O)O)CC2)c1 (mixture of isomers) [Compound 109, (cis/trans)-4-(((5-((3-Chloro-4-fluorophenyl)carbamoyl)-2-fluorophenyl)thio)methyl)cyclohexanecarboxylic acid] | > 5.00
20 | O=C(Nc1cc(F)c(F)c(F)c1)c1ccc(F)c(SCC2CCC(C(=O)O)CC2)c1 (mixture of isomers) [Compound 110, (cis/trans)-4-(((5-((3,4,5-trifluorophenyl)carbamoyl)-2-fluorophenyl)thio)methyl)cyclohexanecarboxylic acid] | > 5.00
21 | O=C1CCCCC(Sc2cc(C(=O)Nc3cc(F)c(F)c(F)c3)ccc2F)C1 (racemic) [Compound 12, (±)-4-Fluoro-3-((3-oxocydoheptyl)thio)-N-(3,4,5-trifluorophenyl)benzamide] | > 5.00
22 | O=C1CCCCC(Sc2cc(C(=O)Nc3ccc(F)c(Cl)c3)ccc2F)C1 (racemic) [Compound 13, (±)-N-(3-Chloro-4-fluorophenyl)-4-fluoro-3-((3-oxocycloheptyl)thio)benzamide] | > 5.00
23 | O=C(Nc1cc(F)c(F)c(F)c1)c1ccc(F)c(S[C@H]2CCCC[C@@H](O)C2)c1 (racemic) [Compound 14A, (±)-4-Fluoro-3-(((1S,3R)-3-hydroxycycloheptyl)thio)-N-(3,4,5-trifluorophenyl)benzamide] | > 5.00
24 | O=C(Nc1cc(F)c(F)c(F)c1)c1ccc(F)c(S[C@@H]2CCCC[C@@H](O)C2)c1 (racemic) [Compound 14B, (±)-4-Fluoro-3-(((1R,3R)-3-hydroxycycloheptyl)thio)-N-(3,4,5-trifluorophenyl)benzamide] | > 5.00
25 | O=C(Nc1cc(F)c(F)c(F)c1)c1ccc(F)c(SC2CCCCC(F)C2)c1 (racemic) [Compound 15, (±)-4-Fluoro-3-((3-fluorocycloheptyl)thio)-N-(3,4,5-trifluorophenyl)benzamide] | > 5.00
26 | O=C1CCCC(Sc2cc(C(=O)Nc3ccc(F)c(Cl)c3)ccc2F)C1 (racemic) [Compound 20, (±)N-(3-Chloro-4-fluorophenyl)-4-fluoro-3-((3-oxocyclohexyl)thio)benzamide] | > 5.00
27 | O=C(Nc1ccc(F)c(Cl)c1)c1ccc(F)c(S[C@@H]2CCC[C@@H](O)C2)c1 (racemic) [Compound 21, (±)-N-(3-Chloro-4-fluorophenyl)-4-fluoro-3-(((1R,3R)-3-hydroxycyclohexyl)thio)benzamide] | > 5.00
28 | O=C1CCC(Sc2cc(C(=O)Nc3ccc(F)c(Cl)c3)ccc2F)C1 (racemic) [Compound 22, (±)-N-(3-Chloro-4-fluorophenyl)-4-fluoro-3-((3-oxocyclopentyl)thio)benzamide] | > 5.00
29 | O=C(Nc1ccc(F)c(Cl)c1)c1ccc(F)c(S[C@H]2CC[C@H](O)C2)c1 (racemic) [Compound 25, (±)-N-(3-Chloro-4-fluorophenyl)-4-fluoro-3-(((1S,3S)-3-hydroxycyclopentyl)thio)benzamide] | > 5.00
30 | O=C(Nc1ccc(F)c(Cl)c1)c1ccc(F)c(SCC2CCOC2)c1 (racemic) [Compound 46, (±)-N-(3-Chloro-4-fluorophenyl)-4-fluoro-3-(((tetrahydrofuran-3-yl)methyl)thio)benzamide] | > 5.00
31 | O=C(Nc1ccc(F)c(Cl)c1)c1ccc(F)c(SC2CCCOC2)c1 (racemic) [Compound 64, (±)-N-(3-Chloro-4-fluorophenyl)-4-fluoro-3-((tetrahydro-2H-pyran-3-yl)thio)benzamide] | > 5.00
